Reference: US20250122218A1, “MODULATORS OF CYSTIC FIBROSIS TRANSMEMBRANE CONDUCTANCE REGULATOR” (Vertex Pharmaceuticals Incorporated, priority 2022, published 2025)

Molecular target: T1, CFTR in F508del/MF-HBE cells (Homo sapiens, UniProt P13569, DEL508-508)
T1 construct: human bronchial epithelial (HBE) cells derived from CF subjects heterozygous for F508del and a minimal function CFTR mutation; endogenous in cells; host or cells: primary human bronchial epithelial cells from CF subjects (F508del/MF-HBE)
Assay: Ussing chamber assay of CFTR-mediated short-circuit currents (identification of potentiator compounds)
Type: cell-based
Settings: potentiator incubated 18-24 hours at 37° C. in combination with 10 μM corrector, in the presence of 20% human serum, CFTR-mediated ISC
In short: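 F508del/MF-HBE cultures were preincubated 18-24 h at 37° C with potentiator plus 10 μM of a fixed corrector compound in 20% human serum; compounds were kept present during measurement. ISC was recorded under voltage clamp (0 mV, 37° C, amiloride apical) and taken as the 20 μM forskolin peak minus the current after inhibitor cocktail.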

T1 sequence (P13569 with tags, fused parts or gaps DEL508-508): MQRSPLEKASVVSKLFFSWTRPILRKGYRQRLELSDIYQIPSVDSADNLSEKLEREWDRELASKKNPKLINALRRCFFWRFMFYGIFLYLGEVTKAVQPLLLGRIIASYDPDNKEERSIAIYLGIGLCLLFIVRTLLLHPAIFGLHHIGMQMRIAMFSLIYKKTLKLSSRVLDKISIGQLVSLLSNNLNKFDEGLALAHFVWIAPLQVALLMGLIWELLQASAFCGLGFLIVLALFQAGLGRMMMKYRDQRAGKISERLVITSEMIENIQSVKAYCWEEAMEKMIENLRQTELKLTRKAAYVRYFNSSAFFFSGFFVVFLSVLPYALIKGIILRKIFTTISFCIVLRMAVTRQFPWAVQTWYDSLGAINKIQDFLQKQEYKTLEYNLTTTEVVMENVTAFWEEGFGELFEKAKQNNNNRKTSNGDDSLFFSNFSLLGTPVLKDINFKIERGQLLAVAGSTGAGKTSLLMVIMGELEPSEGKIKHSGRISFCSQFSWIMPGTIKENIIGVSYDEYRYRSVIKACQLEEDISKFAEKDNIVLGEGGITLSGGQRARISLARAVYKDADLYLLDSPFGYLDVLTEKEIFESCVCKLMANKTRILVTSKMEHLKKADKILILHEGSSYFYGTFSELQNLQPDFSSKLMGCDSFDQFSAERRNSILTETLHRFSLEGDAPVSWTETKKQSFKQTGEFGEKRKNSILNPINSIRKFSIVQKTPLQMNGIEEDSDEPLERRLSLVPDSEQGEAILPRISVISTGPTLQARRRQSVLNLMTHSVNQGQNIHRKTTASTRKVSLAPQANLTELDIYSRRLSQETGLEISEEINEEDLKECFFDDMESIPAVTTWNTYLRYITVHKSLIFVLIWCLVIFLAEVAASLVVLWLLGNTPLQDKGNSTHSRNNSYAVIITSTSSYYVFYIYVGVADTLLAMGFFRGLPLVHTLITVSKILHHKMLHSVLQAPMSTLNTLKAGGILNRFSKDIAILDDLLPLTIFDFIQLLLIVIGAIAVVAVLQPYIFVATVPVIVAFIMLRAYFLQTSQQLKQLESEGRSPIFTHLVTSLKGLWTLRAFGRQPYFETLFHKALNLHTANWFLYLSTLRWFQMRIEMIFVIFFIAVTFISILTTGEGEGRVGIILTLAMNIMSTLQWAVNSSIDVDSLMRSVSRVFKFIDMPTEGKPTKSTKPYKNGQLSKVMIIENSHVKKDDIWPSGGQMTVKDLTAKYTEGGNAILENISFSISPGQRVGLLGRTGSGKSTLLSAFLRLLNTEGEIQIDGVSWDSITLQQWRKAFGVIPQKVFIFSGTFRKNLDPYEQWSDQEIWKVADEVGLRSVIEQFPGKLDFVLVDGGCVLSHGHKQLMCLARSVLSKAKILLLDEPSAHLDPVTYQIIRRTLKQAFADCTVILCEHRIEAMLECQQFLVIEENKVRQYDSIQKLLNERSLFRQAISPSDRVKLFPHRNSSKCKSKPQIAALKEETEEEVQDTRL

Structure (SMILES) | EC50 [nM]
Nc1cc(C(F)(F)F)c2nc1-c1nnc(o1)[C@@](O)(C(F)(F)F)CCCCCN(Cc1cccc(C3CC(F)(F)C3)c1)C2=O [Compound 224, (6R)-17-amino-12-[[3-(3,3-difluorocyclobutyl)phenyl]methyl]-6-hydroxy-6,15-bis(trifluoromethyl)-19-oxa-3,4,12,18-tetrazatricyclo [12.3.1.12,5] nonadeca-1(18),2,4,14,16-pentaen-13-one] | < 500
Cc1cc(C)cc(CN2CCCCC[C@](O)(C(F)(F)F)C3=NN=C(O3)c3nc(c(C(F)(F)F)cc3N)C2=O)c1 [Compound 225, (6R)-17-amino-12-[(3,5-dimethylphenyl)methyl]-6-hydroxy-6,15-bis(trifluoromethyl)-19-oxa-3,4,12,18-tetrazatricyclo [12.3.1.12,5] nonadeca-1(18),2,4,14,16-pentaen-13-one] | < 500
COc1cc(CN2CCCCC[C@](O)(C(F)(F)F)C3=NN=C(O3)c3nc(c(C(F)(F)F)cc3N)C2=O)ccc1C(F)(F)F [Compound 230, (6R)-17-amino-6-hydroxy-12-[[3-methoxy-4-(trifluoromethyl)phenyl]methyl]-6,15-bis(trifluoromethyl)-19-oxa-3,4,12,18-tetrazatricyclo [12.3.1.12,5] nonadeca-1(18),2,4,14,16-pentaen-13-one] | < 500
Nc1cc(C(F)(F)F)c2nc1-c1nnc(o1)[C@@](O)(C(F)(F)F)CCCCCN(Cc1cccc(C34CC(C3)C4)c1)C2=O [Compound 240] | < 500
Nc1cc(C(F)(F)F)c2nc1-c1nnc(o1)[C@@](O)(C(F)(F)F)CCCCCN(Cc1cccc(C(F)F)c1)C2=O [Compound 241, (6R)-17-amino-12-[[3-(difluoromethyl)phenyl]methyl]-6-hydroxy-6,15-bis(trifluoromethyl)-19-oxa-3,4,12,18-tetrazatricyclo [12.3.1.12,5] nonadeca-1(18),2,4,14,16-pentaen-13-one] | < 500
Nc1cc(C(F)(F)F)c2nc1-c1nnc(o1)[C@@](O)(C(F)(F)F)CCCCCN(CC1CCC(F)(F)CC1)C2=O [Compound 242, (6R)-17-amino-12-[(4,4-difluorocyclohexyl)methyl]-6-hydroxy-6,15-bis(trifluoromethyl)-19-oxa-3,4,12,18-tetrazatricyclo [12.3.1.12,5] nonadeca-1(18),2,4,14,16-pentaen-13-one] | < 500
Nc1cc(C(F)(F)F)c2nc1-c1nnc(o1)[C@@](O)(C(F)(F)F)CCCCCN(CC1CC(F)(F)C1)C2=O [Compound 243, (6R)-17-amino-12-[(3,3-difluorocyclobutyl)methyl]-6-hydroxy-6,15-bis(trifluoromethyl)-19-oxa-3,4,12,18-tetrazatricyclo [12.3.1.12,5] nonadeca-1(18),2,4,14,16-pentaen-13-one] | < 500
Nc1cc(C(F)(F)F)c2nc1-c1nnc(o1)[C@@](O)(C(F)(F)F)CCCCCN(CC1C3CCCCC31)C2=O (stereo partly drawn) [Compound 246, (6R)-17-amino-6-hydroxy-12-(norcaran-7-ylmethyl)-6,15-bis(trifluoromethyl)-19-oxa-3,4,12,18-tetrazatricyclo [12.3.1.12,5] nonadeca-1(18),2,4,14,16-pentaen-13-one] | < 500
Nc1cc(C(F)(F)F)c2nc1-c1nnc(o1)[C@@](O)(C(F)(F)F)CCCCCN(Cc1cc(F)cc(C3CCC3)c1)C2=O [Compound 248, (6R)-17-amino-12-[(3-cyclobutyl-5-fluoro-phenyl)methyl]-6-hydroxy-6,15-bis(trifluoromethyl)-19-oxa-3,4,12,18-tetrazatricyclo [12.3.1.12,5] nonadeca-1(18),2,4,14,16-pentaen-13-one] | < 500

The remaining lines, values ahead:

EC50 [nM] | Structure (SMILES)
< 500 | CC(C)(C1CC1)N1CCCCC[C@](O)(C(F)(F)F)C2=NN=C(O2)c2nc(c(C(F)(F)F)cc2N)C1=O [Compound 218, (6R)-17-amino-12-(1-cyclopropyl-1-methyl-ethyl)-6-hydroxy-6,15-bis(trifluoromethyl)-19-oxa-3,4,12,18-tetrazatricyclo [12.3.1.12,5] nonadeca-1(18),2,4,14,16-pentaen-13-one]
< 500 | CC1(N2CCCCC[C@](O)(C(F)(F)F)C3=NN=C(O3)c3nc(c(C(F)(F)F)cc3N)C2=O)CCCCC1 [Compound 219, (6R)-17-amino-6-hydroxy-12-(1-methylcyclohexyl)-6,15-bis(trifluoromethyl)-19-oxa-3,4,12,18-tetrazatricyclo [12.3.1.12,5] nonadeca-1(18),2,4,14,16-pentaen-13-one]
< 500 | Nc1cc(C(F)(F)F)c2nc1-c1nnc(o1)[C@@](O)(C(F)(F)F)CCCCCN(Cc1cccc(C3(C(F)(F)F)CC3)c1)C2=O [Compound 220, (6R)-17-amino-6-hydroxy-6,15-bis(trifluoromethyl)-12-[[3-[1-(trifluoromethyl)cyclopropyl]phenyl]methyl]-19-oxa-3,4,12,18-tetrazatricyclo [12.3.1.12,5] nonadeca-1(18),2,4,14,16-pentaen-13-one]
< 500 | CC(C)(C)c1cccc(CN2CCCCC[C@](O)(C(F)(F)F)C3=NN=C(O3)c3nc(c(C(F)(F)F)cc3N)C2=O)c1 [Compound 221, (6R)-17-amino-12-[(3-tert-butylphenyl)methyl]-6-hydroxy-6,15-bis(trifluoromethyl)-19-oxa-3,4,12,18-tetrazatricyclo [12.3.1.12,5] nonadeca-1(18),2,4,14,16-pentaen-13-one]
< 500 | CC(C)(c1cccc(CN2CCCCC[C@](O)(C(F)(F)F)C3=NN=C(O3)c3nc(c(C(F)(F)F)cc3N)C2=O)c1)C(F)(F)F [Compound 222, (6R)-17-amino-6-hydroxy-12-[[3-(2,2,2-trifluoro-1,1-dimethyl-ethyl)phenyl]methyl]-6,15-bis(trifluoromethyl)-19-oxa-3,4,12,18-tetrazatricyclo [12.3.1.12,5] nonadeca-1(18),2,4,14,16-pentaen-13-one]
< 500 | Nc1cc(C(F)(F)F)c2nc1-c1nnc(o1)[C@@](O)(C(F)(F)F)CCCCCN(Cc1cccc(OCC3(C(F)(F)F)CC3)c1)C2=O [Compound 223, (6R)-17-amino-6-hydroxy-6,15-bis(trifluoromethyl)-12-[[3-[[1-(trifluoromethyl)cyclopropyl]methoxy]phenyl]methyl]-19-oxa-3,4,12,18-tetrazatricyclo [12.3.1.12,5] nonadeca-1(18),2,4,14,16-pentaen-13-one]
< 500 | CC(C)(C)C1(N2CCCCC[C@](O)(C(F)(F)F)C3=NN=C(O3)c3nc(c(C(F)(F)F)cc3N)C2=O)CC1 [Compound 226, (6R)-17-amino-12-(1-tert-butylcyclopropyl)-6-hydroxy-6,15-bis(trifluoromethyl)-19-oxa-3,4,12,18-tetrazatricyclo [12.3.1.12,5] nonadeca-1(18),2,4,14,16-pentaen-13-one]
< 500 | Nc1cc(C(F)(F)F)c2nc1-c1nnc(o1)[C@@](O)(C(F)(F)F)CCCCCN(Cc1cccc(C3CCC3)c1)C2=O [Compound 229, (6R)-17-amino-12-[(3-cyclobutylphenyl)methyl]-6-hydroxy-6,15-bis(trifluoromethyl)-19-oxa-3,4,12,18-tetrazatricyclo [12.3.1.12,5] nonadeca-1(18),2,4,14,16-pentaen-13-one]
< 500 | Nc1cc(C(F)(F)F)c2nc1-c1nnc(o1)[C@@](O)(C(F)(F)F)CCCCCN(Cc1cccc(C3CC3)c1)C2=O [Compound 231, (6R)-17-amino-12-[(3-cyclopropylphenyl)methyl]-6-hydroxy-6,15-bis(trifluoromethyl)-19-oxa-3,4,12,18-tetrazatricyclo [12.3.1.12,5] nonadeca-1(18),2,4,14,16-pentaen-13-one]
< 500 | CC(C)(O)c1cccc(CN2CCCCC[C@](O)(C(F)(F)F)C3=NN=C(O3)c3nc(c(C(F)(F)F)cc3N)C2=O)c1 [Compound 244, (6R)-17-amino-6-hydroxy-12-[[3-(1-hydroxy-1-methyl-ethyl)phenyl]methyl]-6,15-bis(trifluoromethyl)-19-oxa-3,4,12,18-tetrazatricyclo [12.3.1.12,5] nonadeca-1(18),2,4,14,16-pentaen-13-one]
< 500 | Nc1cc(C(F)(F)F)c2nc1-c1nnc(o1)[C@@](O)(C(F)(F)F)CCCCCN(CC1C3(CC3)C13CC3)C2=O [Compound 245, (6R)-17-amino-12-(dispiro[2.0.24.13]heptan-7-ylmethyl)-6-hydroxy-6,15-bis(trifluoromethyl)-19-oxa-3,4,12,18-tetrazatricyclo [12.3.1.12,5] nonadeca-1(18),2,4,14,16-pentaen-13-one]
< 500 | Nc1cc(C(F)(F)F)c2nc1-c1nnc(o1)[C@@](O)(C(F)(F)F)CCCCCN(Cc1cc(F)cc(C3CC3)c1)C2=O [Compound 247, (6R)-17-amino-12-[(3-cyclopropyl-5-fluoro-phenyl)methyl]-6-hydroxy-6,15-bis(trifluoromethyl)-19-oxa-3,4,12,18-tetrazatricyclo [12.3.1.12,5] nonadeca-1(18),2,4,14,16-pentaen-13-one]
> 1000 | Nc1cc(C(F)(F)F)c2nc1-c1nnc(o1)[C@@](O)(C(F)(F)F)CCCCCN(CC(C1CC1)C1CC1)C2=O [Compound 251, (6R)-17-amino-12-(2,2-dicyclopropylethyl)-6-hydroxy-6,15-bis(trifluoromethyl)-19-oxa-3,4,12,18-tetrazatricyclo [12.3.1.12,5] nonadeca-1(18),2,4,14,16-pentaen-13-one]
< 500 | Nc1cc(C(F)(F)F)c2nc1-c1nnc(o1)[C@@](O)(C(F)(F)F)CCCCCN(CC1CC13CC3)C2=O (stereo partly drawn) [Compound 252, (6R)-17-amino-6-hydroxy-12-(spiro[2.2]pentan-2-ylmethyl)-6,15-bis(trifluoromethyl)-19-oxa-3,4,12,18-tetrazatricyclo [12.3.1.12,5] nonadeca-1(18),2,4,14,16-pentaen-13-one]
